Structures can show the parent of a compound that is named as a salt.
Columns and labels:
[1] = Pharmaceutical equivalency: comparison of pharmacokinetic data (methyl hydrogen fumarate level); conditions: rat, in vivo, 100 mg/kg, dosage 100 mg/kg body-wt.
in vivo = conditions: rat, oral administration; for LD50: in vivo, po
Protocol: Before the clinical trial, the acute toxicity of methyl hydrogen fumarate was tested by oral administration to rats.
Acute toxicity on rats (oral administration)

[2] = high dosages; parenteral, dermal and particularly oral route; cited from earlier work
Ehrlich ascites tumour = conditions: mice; cited from earlier work
[3] = tested on: toxic effects of Mitomycin C and Aflatoxin; conditions: cited from earlier work
psoriasis = conditions: cited from earlier work
microbes = conditions: cited from earlier work
phosphoslipase A2 = conditions: cited from earlier work

COC(=O)/C=C/C(=O)O.[Ca] [Methyl hydrogen fumarate calcium salt]
Cmax ([1]; female): 107 µg/mL | Cmax ([1]; male): 51.3 µg/mL

COC(=O)/C=C/C(=O)O [Methyl hydrogen fumarate, methyl hydrogen fumarate]
LD50 (in vivo; female): 1780 mg/kg | LD50 (in vivo; male): 2610 mg/kg | Lowest lethal dose in mg/kg (in vivo; female): 1,470.0 mg/kg | Lowest lethal dose in mg/kg (in vivo; male): 2,150.0 mg/kg | Cmax ([1]; female): 84.8 µg/mL | Cmax ([1]; male): 69.9 µg/mL

O=C(O)/C(O)=C(\O)C(=O)O [dihydroxy fumaric acid]
rate of side effects and toxicity [2]: unacceptable rate of side effects and high toxicity

NC(=O)/C=C/C(N)=O [fumaramide]
rate of side effects and toxicity [2]: unacceptable rate of side effects and high toxicity

O=C(O)/C=C/C(=O)O [fumaric acid]
growth of the Ehrlich ascites tumour (Ehrlich ascites tumour): inhibits the growth of the Ehrlich ascites tumour in mice | toxic effects of Mitomycin C and Aflatoxin [3]: reduces the toxic effects of Mitomycin C and Aflatoxin | anti-psoriatic effect (psoriasis): anti-psoriatic | antimicrobial effect (microbes): antimicrobial effect | stimulation of phosphoslipase A2 (phosphoslipase A2): stimulated

N#C/C=C/C#N [fumaronitrile]
rate of side effects and toxicity [2]: unacceptable rate of side effects and high toxicity
